{
  "source": "patent US5008268A",
  "about": "“2-aminopyrimidinone derivatives” (Janssen Pharmaceutica N.V., priority 1989, dated 1991)",
  "type_in_all_cases": "in vivo",
  "key": {"peripheral serotonin": {"tested_on": "peripheral serotonin", "experiment": "Combined apomorphine, tryptamine and norepinephrine test in rats: tryptamine-induced hyperaemia of the ears", "conditions": "Rattus norvegicus, dose protecting half of tested animals from peripheral serotonin-induced phenomena, in particular hyperaemia of the ears", "source_text": "(§1) Int. Pharmacodyn. Ther. 251, 39-51 (1981).\nPharmacodyn, 227, 238-253 (1977). Said test provides an empirical evaluation of the relative specificity with which drugs may effect particular neurotransmitters centrally (CNS) as well as peripherally. […] The ED50 values of the tested compounds are listed in column 3 of table 4 and represent the dose in mg per kg bodyweight which protects half of the tested animals from peripheral serotonin-induced phenomena, in particular hyperaemia of the ears."}, "[1]": {"tested_on": "compound 48/80-induced gastric lesions", "experiment": "Protection of rats from compound 48/80-induced gastric lesions (antiserotoninergic)", "conditions": "Rattus norvegicus, dose at which stomach distention and glandular-area lesions are completely absent in half of the rats", "source_text": "as §1\nThe ED50 values of the tested compounds are listed in the second column of table 4. Said ED50 values are the doses in mg per kg bodyweight at which the distention of the stomach as well as lesions in the glandular area of the stomach are completely absent in half of the test rats."}, "[2]": {"tested_on": "compound 48/80-induced lethality", "experiment": "Protection of rats from compound 48/80-induced lethality (antihistaminic)", "conditions": "Rattus norvegicus, dose protecting 50% of tested animals against compound 48/80-induced lethality", "source_text": "as §1\nThe ED50 values of the tested compounds of formula (I) are listed in the first column of table 4. Said ED50 values are the values in mg per kg bodyweight at which the tested compounds protect 50% of the tested animals against compound 48/80-induced lethality."}},
  "data": [
    {"smiles": "Cc1nc(N)n(C)c(=O)c1CCN1CCC(Nc2nc3ccccc3n2Cc2ccc(F)cc2)CC1", "note": "[Compound 7]", "values": [
      {"measurement": "ED50", "setting": "peripheral serotonin", "result": 0.01, "unit": "mg/kg"},
      {"measurement": "ED50", "setting": "[1]", "result": 0.02, "unit": "mg/kg"}
    ]},
    {"smiles": "CNc1nc(C)c(CCN2CCC(Nc3nc4ccccc4n3Cc3ccc(CO)o3)CC2)c(=O)n1C", "note": "[Compound 17, 5-[2-[4-[[1-[[5-(hydroxymethyl)-2-furanyl]methyl]-1H-benzimidazol-2-yl]amino]-1-piperidinyl]ethyl]-3,6-dimethyl-2(methylamino)-4(3H)-pyrimidinone]", "values": [
      {"measurement": "ED50", "setting": "peripheral serotonin", "result": 0.002, "unit": "mg/kg"},
      {"measurement": "ED50", "setting": "[2]", "result": 0.02, "unit": "mg/kg"},
      {"measurement": "ED50", "setting": "[1]", "result": 0.01, "unit": "mg/kg"}
    ]},
    {"smiles": "Cc1ccc(Cn2c(NC3CCN(CCc4c(C)nc5n(C)nc(C)n5c4=O)CC3)nc3cccnc32)o1", "note": "[Compound 67]", "values": [
      {"measurement": "ED50", "setting": "peripheral serotonin", "result": 0.08, "unit": "mg/kg"},
      {"measurement": "ED50", "setting": "[2]", "result": 0.04, "unit": "mg/kg"},
      {"measurement": "ED50", "setting": "[1]", "result": 0.08, "unit": "mg/kg"}
    ]},
    {"smiles": "CCNc1nc(C)c(CCN2CCC(Nc3nc4ccccc4n3Cc3ccc(CO)o3)CC2)c(=O)n1C", "note": "[Compound 29]", "values": [
      {"measurement": "ED50", "setting": "peripheral serotonin", "result": 0.005, "unit": "mg/kg"},
      {"measurement": "ED50", "setting": "[2]", "result": 0.08, "unit": "mg/kg"},
      {"measurement": "ED50", "setting": "[1]", "result": 0.16, "unit": "mg/kg"}
    ]},
    {"smiles": "Cc1nc2n(C)c(C)cn2c(=O)c1CCN1CCC(Nc2nc3ccccc3n2Cc2ccc(CO)o2)CC1", "note": "[Compound 71]", "values": [
      {"measurement": "ED50", "setting": "peripheral serotonin", "result": 0.01, "unit": "mg/kg"},
      {"measurement": "ED50", "setting": "[1]", "result": 0.04, "unit": "mg/kg"}
    ]},
    {"smiles": "Cc1nc(N)n(C)c(=O)c1CCN1CCC(Nc2nc3cccnc3n2Cc2ccc(CO)o2)CC1", "note": "[Compound 16]", "values": [
      {"measurement": "ED50", "setting": "peripheral serotonin", "result": 0.005, "unit": "mg/kg"},
      {"measurement": "ED50", "setting": "[2]", "result": 0.01, "unit": "mg/kg"},
      {"measurement": "ED50", "setting": "[1]", "result": 0.16, "unit": "mg/kg"}
    ]},
    {"smiles": "CCCCNc1nc(C)c(CCN2CCC(Nc3nc4cccnc4n3Cc3ccc(C)o3)CC2)c(=O)n1C", "note": "[Compound 34]", "values": [
      {"measurement": "ED50", "setting": "peripheral serotonin", "result": 0.02, "unit": "mg/kg"},
      {"measurement": "ED50", "setting": "[2]", "result": 0.04, "unit": "mg/kg"},
      {"measurement": "ED50", "setting": "[1]", "result": 0.08, "unit": "mg/kg"}
    ]},
    {"smiles": "Cc1nc2n(C)ccn2c(=O)c1CCN1CCC(Nc2nc3ccccc3n2Cc2ccc(CO)o2)CC1", "note": "[Compound 68]", "values": [
      {"measurement": "ED50", "setting": "peripheral serotonin", "result": 0.04, "unit": "mg/kg"},
      {"measurement": "ED50", "setting": "[1]", "result": 0.04, "unit": "mg/kg"}
    ]},
    {"smiles": "Cc1ccc(Cn2c(NC3CCN(CCc4c(C)nc(NCc5ccccc5)n(C)c4=O)CC3)nc3cccnc32)o1", "note": "[Compound 3]", "values": [
      {"measurement": "ED50", "setting": "peripheral serotonin", "result": 0.005, "unit": "mg/kg"},
      {"measurement": "ED50", "setting": "[1]", "result": 0.08, "unit": "mg/kg"}
    ]},
    {"smiles": "Cc1nc(NCc2ccccn2)n(C)c(=O)c1CCN1CCC(Cc2nc3ccccc3n2Cc2ccc(F)cc2)CC1", "note": "[Compound 21]", "values": [
      {"measurement": "ED50", "setting": "peripheral serotonin", "result": 0.01, "unit": "mg/kg"},
      {"measurement": "ED50", "setting": "[2]", "result": 0.04, "unit": "mg/kg"},
      {"measurement": "ED50", "setting": "[1]", "result": 0.08, "unit": "mg/kg"}
    ]},
    {"smiles": "Cc1nc(NCc2ccccn2)n(C)c(=O)c1CCN1CCC(Nc2nc3ccccc3n2Cc2ccc(CO)o2)CC1", "note": "[Compound 39]", "values": [
      {"measurement": "ED50", "setting": "peripheral serotonin", "result": 0.005, "unit": "mg/kg"},
      {"measurement": "ED50", "setting": "[2]", "result": 0.08, "unit": "mg/kg"},
      {"measurement": "ED50", "setting": "[1]", "result": 0.04, "unit": "mg/kg"}
    ]},
    {"smiles": "Cc1nc2n(C)c(C)cn2c(=O)c1CCN1CCC(Cc2nc3ccccc3n2Cc2ccc(F)cc2)CC1", "note": "[Compound 50]", "values": [
      {"measurement": "ED50", "setting": "peripheral serotonin", "result": 0.02, "unit": "mg/kg"},
      {"measurement": "ED50", "setting": "[2]", "result": 0.04, "unit": "mg/kg"},
      {"measurement": "ED50", "setting": "[1]", "result": 0.16, "unit": "mg/kg"}
    ]},
    {"smiles": "CCOCCNc1nc(C)c(CCN2CCC(Nc3nc4ccccc4n3Cc3ccc(CO)o3)CC2)c(=O)n1C", "note": "[Compound 30]", "values": [
      {"measurement": "ED50", "setting": "peripheral serotonin", "result": 0.02, "unit": "mg/kg"},
      {"measurement": "ED50", "setting": "[2]", "result": 0.04, "unit": "mg/kg"},
      {"measurement": "ED50", "setting": "[1]", "result": 0.02, "unit": "mg/kg"}
    ]},
    {"smiles": "Cc1nc2n(C)ccn2c(=O)c1CCN1CCC(Cc2nc3ccccc3n2Cc2ccc(CO)o2)CC1", "note": "[Compound 79]", "values": [
      {"measurement": "ED50", "setting": "peripheral serotonin", "result": 0.02, "unit": "mg/kg"},
      {"measurement": "ED50", "setting": "[1]", "result": 0.04, "unit": "mg/kg"}
    ]},
    {"smiles": "Cc1nc(N)n(C)c(=O)c1CCN1CCC(Cc2nc3ccccc3n2Cc2ccc(F)cc2)CC1", "note": "[Compound 11, 2-amino-5-[2-[4-[[1-[(4-fluorophenyl)methyl]-1H-benzimidazol-2-yl]-methyl]-1-piperidinyl]ethyl]-3,6-dimethyl-4(3H)pyrimidinone]", "values": [
      {"measurement": "ED50", "setting": "peripheral serotonin", "result": 0.005, "unit": "mg/kg"},
      {"measurement": "ED50", "setting": "[2]", "result": 0.02, "unit": "mg/kg"},
      {"measurement": "ED50", "setting": "[1]", "result": 0.16, "unit": "mg/kg"}
    ]},
    {"smiles": "Cc1nc(N)n(C)c(=O)c1CCN1CCC(Nc2nc3ccccc3n2Cc2ccc(CO)o2)CC1", "note": "[Compound 15, 2-amino-5-[2-[4-[[1-[[5-hydroxymethyl-2-furanyl]methyl]-1H-benzimidazol-2-yl]amino]-1-piperidinyl]ethyl]-3,6-dimethyl-4(3H)-pyrimidinone]", "values": [
      {"measurement": "ED50", "setting": "peripheral serotonin", "result": 0.002, "unit": "mg/kg"},
      {"measurement": "ED50", "setting": "[2]", "result": 0.02, "unit": "mg/kg"},
      {"measurement": "ED50", "setting": "[1]", "result": 0.005, "unit": "mg/kg"}
    ]},
    {"smiles": "Cc1nc2ccccn2c(=O)c1CCN1CCC(Nc2nc3cccnc3n2Cc2ccco2)CC1", "note": "[reference, 3-[2-[4-[[3-(2-furanylmethyl)-3H-imidazo[4,5-b]pyridin-2-yl]amino]-1-piperidinyl]ethyl]-2-methyl-4H-pyrido[1,2-a]pyrimidin-4-one, reference compound]", "values": [
      {"measurement": "ED50", "setting": "peripheral serotonin", "result": 0.63, "unit": "mg/kg"},
      {"measurement": "ED50", "setting": "[2]", "result": 0.08, "unit": "mg/kg"},
      {"measurement": "ED50", "setting": "[1]", "result": 0.63, "unit": "mg/kg"}
    ]},
    {"smiles": "CCCNc1nc(C)c(CCN2CCC(Nc3nc4ccccc4n3Cc3ccc(CO)o3)CC2)c(=O)n1C", "note": "[Compound 43, 5-[2-[4-[[1-[[5-(hydroxymethyl)-2-furanyl]methyl]-1H-benzimidazol-2-yl]amino]-1-piperidinyl]ethyl]-3,6-dimethyl-2-(propylamino)-4(3H)-pyrimidinone]", "values": [
      {"measurement": "ED50", "setting": "peripheral serotonin", "result": 0.005, "unit": "mg/kg"},
      {"measurement": "ED50", "setting": "[2]", "result": 0.08, "unit": "mg/kg"},
      {"measurement": "ED50", "setting": "[1]", "result": 0.04, "unit": "mg/kg"}
    ]},
    {"smiles": "CC1=NN(C)c2nc(C)c(CCN3CCC(Cc4nc5ccccc5n4Cc4ccc(F)cc4)CC3)c(=O)n2C1", "note": "[Compound 58]", "values": [
      {"measurement": "ED50", "setting": "peripheral serotonin", "result": 0.02, "unit": "mg/kg"},
      {"measurement": "ED50", "setting": "[2]", "result": 0.04, "unit": "mg/kg"},
      {"measurement": "ED50", "setting": "[1]", "result": 0.16, "unit": "mg/kg"}
    ]}
  ]
}
